Data reported in paper PMC12588666 (Therapeutic Drug Monitoring, 2025).

Tests used:
P. mirabilis = test: Susceptibility of intraoperative culture isolate, P. mirabilis (case 1); type: cell-based, Proteus mirabilis; conditions: case 1 intraoperative culture
Method: (§1) Case 1: A patient (102.5 kg, creatinine clearance of 71 mL/min based on a 6-hour urine collection) developed a polymicrobial implant-associated spinal infection (IASI) after Th9-L3 spondylodesis and laminectomy at Th12. […] Surgical debridement was performed before dalbavancin therapy.
(§2) Intravenous vancomycin and ceftriaxone were initiated to treat S. aureus, P. mirabilis, and E. faecium. S. aureus was susceptible to both agents, P. mirabilis to ceftriaxone, and E. faecium to vancomycin. After 1 week, ceftriaxone was switched to oral ciprofloxacin.

S. aureus [1] = test: Susceptibility of intraoperative culture isolate, S. aureus (case 1); type: cell-based, Staphylococcus aureus; conditions: case 1 intraoperative culture
Method: as §1, §2

[2] = long half-life; cited from earlier work
[3] = Dalbavancin plasma concentrations by LC-MS/MS (TDM, case 1); type: in vivo, human
From the text: Background: Implant-associated spinal infections (IASI) pose challenges for outpatient management due to the need for frequent intravenous antibiotic administration. […] One patient received therapeutic drug monitoring (TDM)-guided dosing, while the other was managed with fixed-interval dosing. […] Both patients successfully completed therapy without recurrence of the infection during follow-up. […] Further research is required to establish standardized therapeutic drug monitoring protocols for the management of IASI.
The second 1500 mg dose followed on day 8, with TDM on days 22 and 28.

S. aureus [4] = conditions: in vivo; cited from earlier work
From the text: (§3) The Clinical and Laboratory Standards Institute has defined a tentative susceptibility breakpoint o ...

E. faecium [5] = conditions: Clinical and Laboratory Standards Institute; cited from earlier work
From the text: as §3

[6] = tested on: implant-associated spinal infection (IASI); test: Clinical outcome and tolerability in patients with implant-associated spinal infection
Method: The total duration of the antimicrobial treatment was 12 weeks. Creatinine levels remained stable.
Symptoms resolved within 2.5 hours after 1-mg oral clemastine (antihistamine) and was discharged.

E. faecium [7] = test: Susceptibility of intraoperative culture isolate, E. faecium (case 1); type: cell-based, Enterococcus faecium; conditions: case 1 intraoperative culture
Method: as §1, §2

SMILES	susceptibility of P. mirabilis (P. mirabilis)	susceptibility of S. aureus (S. aureus [1])	half-life [2] [h]	trough concentration before the third dalbavancin infusion ([3]; case 1, 102.5 kg, CrCl 71 mL/min, after 1500 mg doses on day 1 and day 8, single patient) [mg/L]	peak plasma concentration after the third dalbavancin infusion ([3]; case 1, third 1500-mg dose on day 44, single patient) [mg/L]	trough concentration corresponding to the ƒAUC24/MIC target (S. aureus [4]) [µg/mL]	tentative susceptibility breakpoint (E. faecium [5]) [mg/L]	infection recurrence at follow-up ([6]; both patients (case 1 TDM-guided three doses, case 2 fixed-interval four doses of 1500 mg))	blood, renal, and liver tests ([6]; case 2)	adverse reaction after the final dose ([6]; case 2, 85 kg, 4 off-label 1500-mg doses every 2 weeks without TDM)	severity of reaction ([6]; case 2, possibly due to the infusion)	susceptibility of E. faecium (E. faecium [7])
CO/N=C(\C(=O)N[C@@H]1C(=O)N2C(C(=O)O)=C(CSc3nc(=O)c(=O)[nH]n3C)CS[C@H]12)c1csc(N)n1 [ceftriaxone]	susceptible	susceptible	–	–	–	–	–	–	–	–	–	–
CN[C@H]1C(=O)N[C@@H]2Cc3ccc(cc3)Oc3cc4cc(c3O[C@@H]3O[C@H](C(=O)O)[C@@H](O)[C@H](O)[C@H]3NC(=O)CCCCCCCCC(C)C)Oc3ccc(cc3Cl)[C@@H](O)[C@@H]3NC(=O)[C@H](NC(=O)[C@@H]4NC(=O)[C@@H](NC2=O)c2cc(cc(O)c2Cl)Oc2cc1ccc2O)c1ccc(O)c(c1)-c1c(O[C@H]2O[C@H](CO)[C@@H](O)[C@H](O)[C@@H]2O)cc(O)cc1[C@@H](C(=O)NCCCN(C)C)NC3=O [dalbavancin]	–	–	147 to 258	10.3	301.8	≥ 8	0.25	without infection recurrence up to 8 months after therapy	remained normal	nausea, vomited once, and had a painful, itchy, erythematous, and swollen face	moderate reaction	–
CN[C@H](CC(C)C)C(=O)N[C@H]1C(=O)N[C@@H](CC(N)=O)C(=O)N[C@H]2C(=O)N[C@H]3C(=O)N[C@H](C(=O)N[C@H](C(=O)O)c4cc(O)cc(O)c4-c4cc3ccc4O)[C@H](O)c3ccc(c(Cl)c3)Oc3cc2cc(c3O[C@@H]2O[C@H](CO)[C@@H](O)[C@H](O)[C@H]2O[C@H]2C[C@](C)(N)[C@H](O)[C@H](C)O2)Oc2ccc(cc2Cl)[C@H]1O [vancomycin]	–	susceptible	–	–	–	–	–	–	–	–	–	susceptible
